Experimental data from patent US8173133B2, “Acyl pseudodipeptides which carry a functionalized auxiliary arm” (OM Pharma, priority 1999, dated 2012).

Assays:
[1] = test system: human peripheral blood mononuclear cells; test: inhibition of E. coli LPS-induced α TNF production in human peripheral blood mononuclear cells; format: cell-based; conditions: product 10 μg/ml; for 50% inhibition LPS: LPS concentration at which α TNF production is 50% of control; for max. Inhibition LPS: LPS concentration corresponding to maximum inhibition
Description: Mononuclear cells of peripheral blood are recovered from buffy coats of 6 healthy donors. Such buffy coat cells are resuspended and mononuclear cells are isolated by centrifugation on a Ficoll-Paque gradient (Amersham Pharmacia). Purified mononuclear cells are resuspended into RPMI-1640 medium supplemented with 10% FCS, antibiotics, mercaptoethanol and L-glutamine. Cell concentration is adjusted to 2×10^6 viable cells/ml.
Product mediated Inhibition is determined by preincubating those products with mononuclear cells, and adding, 1 hour later, serially diluted solutions of LPS capable of inducing α TFN production. […] E. coli LPS is serially diluted (10-fold dilution) to be in the range of 1 to 0.00001 μg/ml
50 μl of 10 μg/ml dilute product solutions in RPMI 1640 medium are dispensed into a microtiter plate. Each assay (10 μg/ml product concentration+dilute E. coli LPS) is run in triplicates and each microtiter plate includes a negative control comprised of plain medium. LPS-induced α TNF production (without inhibitor) is determined by adding E. coli LPS dilutions to RPMI medium.
100 μl of the cell suspension are added to each well containing dilutions of either product or control. Cells are incubated with the products for 1 hour in an incubator at 37° C., under 5% CO2 and a moisture saturated atmosphere.
At the end of the pre-incubation period, 50 μl of serially diluted solutions of E. coli LPS are added. Incubation of mononuclear cells with the product and LPS is extended for 18 hours. At the end of the cell activation period, the microtiter plates are centrifuged, and the supernatants are pooled and frozen at −80° C. as aliquots until time of ELISA assay.
Concentration of αTNF secreted by mononuclear cells is determined by chemiluminescent ELISA (QuantiGlo #QTAOO R&D kit). 4-fold dilutions of supernatant fluid are dispensed into each well of the microtiter plate to which anti-human αTNF antibodies are bound. The microtiter plate is incubated for 4 hours at room temperature. After washing, peroxidase-conjugated anti-human αTNF antibody is added. Following a 2 hour incubation period and a thorough washing, a chemiluminescent substrate is added and chemilunescence is read after 20 minutes. αTNF content in the supernatant fluid is determined with respect to a standard curve covering the 7000 to 0.7 pg/ml range.
Inhibition is characterized by the E. coli LPS concentration which elicits 50% production of α TNF during co-incubation in comparison to a control including only RPMI. This concentration increases as product inhibition activity becomes stronger. Knowing inhibition values of α TNF production, this concentration is given by calculating 100-(αTNF production induced by product and LPS)/(αTNF production induced by LPS alone)*100. From these inhibition data, concentration is determined by linear regression along the line segment which joins 2 LPS dilutions giving approx. 50% inhibition.
Product ability to inhibit α TNF production in mononuclear cells in response to LPS is further characterized by maximum inhibition. […] Results are calculated from a representative experience using all products.

[2] = test system: CD83, CD86 surface markers of predendritic cells (DC-6); test: dendritic cell differentiation test: CD83, CD86 surface marker expression; format: cell-based, human; conditions: 10 μg/ml; for CD86 % CD: products redissolved in pyrogen-free water, % of dendritic cells; for CD86 Fluorescence: mean fluorescence value
Description: The ability of products of the invention to induce maturation of predendritic cells into dendritic cells was assessed. The following parameters were measured: FITC-Dextran conjugate take-up and expression of CD83, CD86 surface markers.
Mononucleated cells of peripheral blood are isolated from buffy coats of healthy donors. Purified monocytes by adherence selection are resuspended in RPMI-1640 medium containing 10% of foetal calf serum (FCS), GM-CSF and IL-4 (10 ng/ml) at a density of 1×10^6 cells/ml. Cells are divided into Petri Dishes (10×10^6 cells per dish) and cultured for 6 days with a change to fresh medium after 3 days. Cells thus obtained are called predendritic cells (DC-6). Maturation of predendritic cells into mature dendritic cells is achieved by incubating cells with diluted solutions of the products or LPS (positive control) for 3 more days (see product section below). At day 9 (DC-9), cells are harvested and analyzed for different indicators of dendritic cell maturation: assessment of CD83, CD86 surface marker expression as well as of their ability to take up FITC-Dextran conjugate. All these parameters are analyzed by an EPICS-XL-MCL model FACS (Coulter Immunology, Hialeah, […]).
Expression of surface markers is given as % of mean fluorescence of LPS-activated cells (positive control); FITC-Dextran conjugate take-up rate is calculated based on take-up of cells maintained in basic medium and is expressed in %.
Solutions are incubated at 37° C. for 20 minutes, subjected to vigorous stirring during 3 minutes and then diluted to 100 μg/ml in RPMI-1640 culture medium and used in diluted state at concentrations ranging from 10 μg/ml to 0.03 μg/ml. Reference Product: E. coli lipopolysaccharide (LPS, DIFCO, Detroit, Mich., U.S.A.), as a 5 mg/ml stock solution in PBS. An intermediate 100 μg/ml solution is prepared in RPMI 1640 culture medium. Concentrations of dilute solutions being tested range from 1 μg/ml to 0.03 μg/ml.
In another series of experiments, all acyl dipeptide-like compounds were freeze-dried and directly redissolved into pyrogen-free water. Different products as well as LPS control are tested at a concentration of 10 μg/ml. Results are given as % of dendritic cells and mean fluorescence value for dextran phagocytosis or CD86 surface marker expression.

CCCCCCCCCCCC(=O)O[C@H](CCCCCCCCCCC)CC(=O)N[C@H](CC(=O)O)C(=O)NCCC[C@H](COC(=O)CCCCCN)NC(=O)C[C@H](O)CCCCCCCCCCC [OM-197-MC-AC, N—[(R)-3-dodecanoyloxytetradecanoyl]-D-aspartic acid, α-N-{(4R)-5-(6-aminohexanoyloxy)-4-[(R)-3-hydroxytetradecanoylamino]pentyl}amide]
max. Inhibition [1]: 100%
50% inhibition LPS [1]: 0.88 µg/mL
max. Inhibition LPS [1]: 0.00003 µg/mL
CD86 % CD [2]: 67.4%
CD86 Fluorescence [2]: 5.2

CCCCCCCCCCCC(=O)O[C@H](CCCCCCCCCCC)CC(=O)N[C@H](CC(=O)O)C(=O)NCCC[C@H](COC(=O)CCCCCNC(=O)CCC(=O)OC[C@H]1O[C@@H](n2cc(C)c(=O)[nH]c2=O)C[C@@H]1N=[N+]=[N-])NC(=O)C[C@H](O)CCCCCCCCCCC [OM-197-MC-AC-Succ-AZT]
max. Inhibition [1]: 100%
50% inhibition LPS [1]: 0.45 µg/mL
max. Inhibition LPS [1]: 0.0005 µg/mL
CD86 % CD [2]: 81.4%
CD86 Fluorescence [2]: 6.1

CCCCCCCCCCCC(=O)O[C@H](CCCCCCCCCCC)CC(=O)N[C@H](CC(=O)O)C(=O)NCCC[C@H](COC(=O)CCCCCNC(=O)CCC(=O)OC[C@@H]1C=C[C@H](n2cc(C)c(=O)[nH]c2=O)O1)NC(=O)C[C@H](O)CCCCCCCCCCC [OM-197-MC-AC-Succ-d4T]
max. Inhibition [1]: 100%
50% inhibition LPS [1]: 0.64 µg/mL
max. Inhibition LPS [1]: 0.00016 µg/mL
CD86 % CD [2]: 25.9%
CD86 Fluorescence [2]: 2.4

CCCCCCCCCCCC(=O)O[C@H](CCCCCCCCCCC)CC(=O)N[C@H](CC(=O)O)C(=O)NCCC[C@H](COC(=O)CCCCC(O)CO)NC(=O)C[C@H](O)CCCCCCCCCCC (stereo partly drawn) [OM-197-MC-FV5, N—[(R)-3-dodecanoyloxytetradecanoylamino]-D-aspartic acid, α-N-{(4R)-5-hydroxy-4-[(R)-3-hydroxytetra-decanoylamino]-pentyl}amide 5-O-(6,7-dihydroxyheptanoate)]
max. Inhibition [1]: 100%
50% inhibition LPS [1]: >1 µg/mL
max. Inhibition LPS [1]: 0.016 µg/mL
CD86 % CD [2]: 74.5%
CD86 Fluorescence [2]: 5.6

CCCCCCCCCCCC(=O)O[C@H](CCCCCCCCCCC)CC(=O)N[C@H](CC(=O)N[C@@H](CC(=O)O)C(=O)O)C(=O)NCCC[C@H](COC(=O)CCCCCN)NC(=O)C[C@H](O)CCCCCCCCCCC [OM-197-Asp-AC, N—[(R)-3-dodecanoyloxytetradecanoyl]-D-aspartic acid, α-N-{(4R)-5-(6-aminohexanoyloxy)-4-[(R)-3-hydroxytetradecanoyl-amino]-pentyl}amide β-N-[(1S)-1,2-dicarboxyethyl]Amide]
max. Inhibition [1]: 100%
50% inhibition LPS [1]: 0.29 µg/mL
max. Inhibition LPS [1]: 0.0058 µg/mL
CD86 % CD [2]: 26.7%
CD86 Fluorescence [2]: 2.4

CCCCCCCCCCCC(=O)O[C@H](CCCCCCCCCCC)CC(=O)N[C@H](CC(=O)O)C(=O)NCCC[C@H](COC(=O)CCC(=O)O)NC(=O)C[C@H](O)CCCCCCCCCCC [OM-197-MC-Succ]
max. Inhibition [1]: 100%
50% inhibition LPS [1]: 1 µg/mL
max. Inhibition LPS [1]: 0.018 µg/mL
CD86 % CD [2]: 34.9%
CD86 Fluorescence [2]: 3.0

CCCCCCCCCCCC(=O)O[C@H](CCCCCCCCCCC)CC(=O)N[C@H](CC(=O)N[C@@H](CCCCN)C(=O)O)C(=O)NCCC[C@H](COC(=O)CCCCCN)NC(=O)C[C@H](O)CCCCCCCCCCC [OM-197-Lys-AC]
max. Inhibition [1]: 100%
50% inhibition LPS [1]: >1 µg/mL
max. Inhibition LPS [1]: 0.001 µg/mL
CD86 % CD [2]: 93.5%
CD86 Fluorescence [2]: 6.9

CCCCCCCCCCCC(=O)O[C@H](CCCCCCCCCCC)CC(=O)N[C@H](CC(=O)NCCCN)C(=O)NCCC[C@H](CO)NC(=O)C[C@H](O)CCCCCCCCCCC [OM-197-AP, N—[(R)-3-dodecanoyloxytetradecanoyl]-D-aspartic acid, α-N-{(4R)-5-hydroxy-4-[(R)-3-hydroxy-tetradecanoylamino]pentyl}-amide β-N-(3-aminopropyl)amide]
max. Inhibition [1]: 100%
50% inhibition LPS [1]: >1 µg/mL
max. Inhibition LPS [1]: 0.016 µg/mL
CD86 % CD [2]: 62.0%
CD86 Fluorescence [2]: 4.8
